Assay results reported in ChEMBL document CHEMBL2007661, “Compounds: GSK PKIS; Assays: UNC Frye lab” (2012).
Values joined by “and” are separate entries in the source; they are usually repeats but may differ in a detail not shown here. Identical values can stand only once.

Columns and labels:
[1] = target: T1, Inhibitor of nuclear factor kappa-B kinase subunit epsilon (Homo sapiens) (UniProt Q14164); details: at 1 µM
T1 sequence (whole entry): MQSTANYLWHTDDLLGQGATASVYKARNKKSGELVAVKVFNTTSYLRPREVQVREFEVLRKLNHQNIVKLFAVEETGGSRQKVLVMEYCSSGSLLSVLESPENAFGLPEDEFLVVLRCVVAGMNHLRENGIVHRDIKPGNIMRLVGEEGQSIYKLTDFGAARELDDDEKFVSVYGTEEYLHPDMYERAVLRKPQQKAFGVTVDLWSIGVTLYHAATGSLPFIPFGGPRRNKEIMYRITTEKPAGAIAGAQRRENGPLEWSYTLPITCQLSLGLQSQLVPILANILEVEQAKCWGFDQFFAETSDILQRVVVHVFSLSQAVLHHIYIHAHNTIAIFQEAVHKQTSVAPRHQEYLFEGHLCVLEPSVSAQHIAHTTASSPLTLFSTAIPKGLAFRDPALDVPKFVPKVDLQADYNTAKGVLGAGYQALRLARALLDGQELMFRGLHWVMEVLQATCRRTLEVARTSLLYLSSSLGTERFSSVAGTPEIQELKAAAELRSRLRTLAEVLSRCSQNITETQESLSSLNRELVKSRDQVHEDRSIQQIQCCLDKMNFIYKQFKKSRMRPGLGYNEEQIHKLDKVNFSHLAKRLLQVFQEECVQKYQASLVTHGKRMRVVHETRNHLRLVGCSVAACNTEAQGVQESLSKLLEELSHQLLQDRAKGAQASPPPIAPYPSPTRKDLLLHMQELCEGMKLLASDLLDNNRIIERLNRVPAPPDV

[2] = target: T2, Tyrosine-protein kinase Mer (Homo sapiens) (UniProt Q12866); details: at 10 µM
T2 sequence (whole entry): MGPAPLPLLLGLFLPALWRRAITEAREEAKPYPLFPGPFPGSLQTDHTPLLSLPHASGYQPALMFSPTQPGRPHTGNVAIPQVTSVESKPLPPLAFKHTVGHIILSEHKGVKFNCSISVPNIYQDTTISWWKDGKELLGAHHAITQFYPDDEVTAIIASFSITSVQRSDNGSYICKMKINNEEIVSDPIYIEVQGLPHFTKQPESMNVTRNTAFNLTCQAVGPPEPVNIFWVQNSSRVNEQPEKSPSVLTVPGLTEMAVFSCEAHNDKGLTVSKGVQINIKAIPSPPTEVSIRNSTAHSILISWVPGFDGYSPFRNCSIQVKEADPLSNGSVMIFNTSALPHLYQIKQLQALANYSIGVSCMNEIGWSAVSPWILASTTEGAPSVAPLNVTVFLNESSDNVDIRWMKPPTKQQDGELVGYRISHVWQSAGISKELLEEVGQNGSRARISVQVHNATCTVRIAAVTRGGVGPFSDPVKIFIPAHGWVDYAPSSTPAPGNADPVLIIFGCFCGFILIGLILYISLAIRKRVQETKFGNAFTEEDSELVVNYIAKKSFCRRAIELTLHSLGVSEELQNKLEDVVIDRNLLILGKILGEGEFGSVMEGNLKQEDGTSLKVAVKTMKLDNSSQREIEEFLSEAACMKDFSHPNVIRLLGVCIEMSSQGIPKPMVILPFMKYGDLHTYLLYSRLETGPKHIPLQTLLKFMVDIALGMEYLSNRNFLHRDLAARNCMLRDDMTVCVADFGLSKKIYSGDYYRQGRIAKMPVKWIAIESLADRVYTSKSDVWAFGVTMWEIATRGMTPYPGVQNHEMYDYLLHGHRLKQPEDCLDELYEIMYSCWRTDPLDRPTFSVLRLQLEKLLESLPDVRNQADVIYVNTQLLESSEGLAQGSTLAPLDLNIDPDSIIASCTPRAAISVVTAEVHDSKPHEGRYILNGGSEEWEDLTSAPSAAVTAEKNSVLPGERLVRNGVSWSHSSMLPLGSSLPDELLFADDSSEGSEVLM

[3] = target: T3, Inhibitor of nuclear factor kappa-B kinase subunit beta (Homo sapiens) (UniProt O14920); details: at 1 µM
T3 sequence (whole entry): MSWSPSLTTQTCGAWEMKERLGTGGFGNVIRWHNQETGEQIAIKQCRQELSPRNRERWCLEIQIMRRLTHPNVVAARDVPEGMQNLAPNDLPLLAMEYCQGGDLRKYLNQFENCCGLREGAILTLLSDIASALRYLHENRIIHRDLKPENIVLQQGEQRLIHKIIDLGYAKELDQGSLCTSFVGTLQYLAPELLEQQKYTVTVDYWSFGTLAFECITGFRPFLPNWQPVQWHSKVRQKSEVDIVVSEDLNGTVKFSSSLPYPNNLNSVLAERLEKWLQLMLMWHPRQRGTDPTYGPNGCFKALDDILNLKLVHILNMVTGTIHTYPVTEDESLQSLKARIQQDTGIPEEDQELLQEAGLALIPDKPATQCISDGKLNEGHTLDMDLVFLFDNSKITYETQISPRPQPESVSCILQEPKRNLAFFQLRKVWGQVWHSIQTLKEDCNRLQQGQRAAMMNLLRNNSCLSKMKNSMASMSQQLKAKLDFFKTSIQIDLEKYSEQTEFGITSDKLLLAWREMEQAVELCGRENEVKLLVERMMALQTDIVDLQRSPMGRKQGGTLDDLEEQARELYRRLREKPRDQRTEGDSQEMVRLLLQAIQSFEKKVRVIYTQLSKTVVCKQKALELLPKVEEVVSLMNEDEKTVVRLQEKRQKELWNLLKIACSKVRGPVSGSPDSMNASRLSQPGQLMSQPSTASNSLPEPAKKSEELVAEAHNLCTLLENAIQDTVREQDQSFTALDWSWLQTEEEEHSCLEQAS

[4] = target: T4, Serine/threonine-protein kinase TBK1 (Homo sapiens) (UniProt Q9UHD2); details: at 1 µM
T4 sequence (whole entry): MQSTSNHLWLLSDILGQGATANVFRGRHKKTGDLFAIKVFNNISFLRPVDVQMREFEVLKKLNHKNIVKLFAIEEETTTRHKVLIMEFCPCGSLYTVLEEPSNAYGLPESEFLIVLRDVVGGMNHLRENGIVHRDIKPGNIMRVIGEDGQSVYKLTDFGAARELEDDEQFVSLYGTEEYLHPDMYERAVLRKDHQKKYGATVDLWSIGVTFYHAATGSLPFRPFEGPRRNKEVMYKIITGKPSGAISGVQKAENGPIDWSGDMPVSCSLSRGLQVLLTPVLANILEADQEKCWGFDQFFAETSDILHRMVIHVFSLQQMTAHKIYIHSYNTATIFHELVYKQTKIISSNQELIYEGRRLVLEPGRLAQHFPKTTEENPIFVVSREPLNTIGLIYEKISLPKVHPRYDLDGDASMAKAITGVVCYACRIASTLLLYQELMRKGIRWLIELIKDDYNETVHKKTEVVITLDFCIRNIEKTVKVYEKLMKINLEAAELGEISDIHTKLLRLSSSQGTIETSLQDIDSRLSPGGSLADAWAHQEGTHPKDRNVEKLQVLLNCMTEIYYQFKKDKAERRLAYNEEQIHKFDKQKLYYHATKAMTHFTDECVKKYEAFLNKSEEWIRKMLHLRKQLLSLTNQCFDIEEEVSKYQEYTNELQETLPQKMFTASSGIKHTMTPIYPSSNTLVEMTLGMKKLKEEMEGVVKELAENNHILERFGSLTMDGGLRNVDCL

inhibition [1]	inhibition [2]	inhibition [3]	inhibition [4]	Compound
14%	-1%	-1% and 0%	10% and 13%	NC(=O)c1cc(-c2ccncc2)cc(-c2ccccc2)c1N
1% and 5%	-2%	-1% and -2%	7% and 3%	C[C@@H](Oc1cc(-n2cnc3ccc(OC4CCN(C)CC4)cc32)sc1C(N)=O)c1ccccc1Cl
